Test results taken from patent US4434172A, “2-Substituted-phenyl-5-alkylthiazolidine-4-one” (priority 1980, dated 1984).

What was measured:
[1] = system: peptic ulcer due to pyloric ligation; experiment: Effect on peptic ulcer due to pyloric ligation; type: in vivo, male rats; conditions: 100 mg/kg, intraperitoneal; for Ulcer coefficient: 15 hours after pyloric ligation, control 41.1; for Rate of suppression of ulcer: versus control
Protocol: (1) Effect on peptic ulcer due to pyloric ligation
Six groups (10 animals per group) of male rats weighting 180 to 200 g were subjected to ligation of their pylori under ether-anesthesia after fasting for 48 hours according to the method of Shay et al. (refer to Gastroenterology, 5, page 43 (1945)).
Just after subjecting to ligation, each of the present compound suspended in an aqueous physiological saline solution was intraperitoneally administered to each rat, the control being poured to with an aqueous physiological saline solution. Then, after 15 hours of fasting without taking water, the rats were sacrificed with ether and their stomachs were removed to examine under a microscope for anatomy. The length and width of the thus-formed ulcer in the stomach were determined and expressed by the product (mm^2), and the total sum of the products was represented as the ulcer coefficient.

[2] = system: peptic ulcer due to acetic acid; experiment: Effect on peptic ulcer due to acetic acid (duodenal); type: in vivo, male rats; conditions: for coefficient (ulcer coefficient) / Rate of suppression of ulcer: 100 mg/kg, oral; for coefficient (ulcer coefficient): 3 times a day for 10 days from third day of operation, control 8.0; for Rate of suppression of ulcer: 3 times a day for 10 days, versus control
Text: The inventors of the present invention, taking into account of these situations, added to the above-mentioned method of evaluation the effect of accelerating the cure of the peptic ulcer by orally administering the present compound and a commercialized anti-peptic ulcer medicine, respectivey to rats to which duodenal peptic ulcer due to acetic acid (refer to Okabe, 1971) considered to be most closely resembling to human peptic ulcer has been artificially formed.
(2) Effect on peptic ulcer due to acetic acid
Following the method of Okabe et al (refer to Amer. J. Dig. Dis., 16, […], 6 groups (15 animals per group) of male rats weighing 240 to 260 g were subjected to laparotomy under ether anesthesia in which a metal circular frame was placed on the serosa at a distance of 5 to 7 mm from the duodenal pylorus, 0.06 ml of glacial acetic acid was poured into the frame. After 30 seconds, the liquid containing the acetic acid was removed and then the frame was removed. The test compound suspended in an aqueous physiological saline solution was orally administered to the rat 3 times a day from the third day of the operation for consecutive 10 days. After the administration was over, the rats were sacrificed with ether, and their duodenum was removed to observe under a microscope for anatomy. The length and width of the thus-formed ulcer were measured and their product (expressed with mm^2) was recorded as the ulcer coefficient.

[3] = Acute toxicity test, oral; set-up: species or system Female ICR-mice; conditions: mouse, in vivo, mortality observed for a week, Litchfield-Wilcoxon
Protocol: Female ICR-mice of body weight of 20 to 24 g, 5 weeks after birth were used.
Eight animal per group were kept in a transparent polycage at room temperature of 23°±1° C., and RH of 60 to 70%.
After minutely pulverizing each one of the present compounds, the pulverized compound was suspended in an aqueous 5% sodium carboxymethylcellulose solution containing 20% of Tween-80. The aqueous suspension was forcibly orally administered by a metal stomach tube, the dose rate having been adjusted by changing the concentration of the present compound in the aqueous suspension.

peptic ulcer = conditions: cited from earlier work

Row | SMILES | Ulcer coefficient [1] [mm^2] | Rate of suppression of ulcer [1] | coefficient (ulcer coefficient) [2] [mm^2] | Rate of suppression of ulcer [2] [%] | LD50 at 168 h [3] [mg/kg] | effect on ulcer-curing (peptic ulcer; commercialized medicine) | side effects (peptic ulcer; in vivo) | Rate of suppression of ulcer ([1]; listed as Positive control) [%] | curative effect / effectiveness (in words) ([2]; acetic acid ulcer)
1 | COc1cc(C2NC(=O)C(C)S2)cc(OC)c1OC (stereo not shown) [Compound 1, 2-(3,4,5-trimethoxyphenyl)-5-methylthiazolidine-4-one] | 7.2 | 82.5% | 2.8 | 77.5 | 6400 |  |  |  | 
2 | COc1ccc(C2NC(=O)C(C)S2)cc1OC (stereo not shown) [Compound 2, 2-(3,4-dimethoxyphenyl)-5-methylthiazolidine-4-one] | 6.5 | 84.2% | 2.4 | 70.0 | > 8000 |  |  |  | 
3 | CC1(C)[C@@H](OC(=O)CCC(=O)O)CC[C@]2(C)[C@H]3C(=O)C=C4[C@@H]5C[C@@](C)(C(=O)O)CC[C@]5(C)CC[C@@]4(C)[C@]3(C)CC[C@@H]12 [carbenoxolone] |  |  |  |  |  | excellent accelerating effect on the ulcer-curing | aldosterone-like side effects to cause hypertension and weakening of muscular function |  | 
4 | COc1ccc(C2NC(=O)C(C)S2)cc1 (stereo not shown) [Compound 4, 2-(4-methoxyphenyl)-5-methylthiazolidine-4-one] | 4.1 | 90.0% | 1.5 | 81.3 | > 8000 |  |  |  | 
5 | COc1ccccc1C1NC(=O)C(C)S1 (stereo not shown) [Compound 3, 2-(2-methoxyphenyl)-5-methylthiazolidine-4-one] | 3.6 | 91.2% | 1.3 | 83.8 | > 8000 |  |  |  | 
6 | CC(C)=CCCC(C)=CCCC(C)=CCCC(=O)OCC=C(C)CCC=C(C)C [gefarnate, 3,7dimethyl-2,6-octadienyl 5,9,13trimethyl-4,8,12-tetradecatrienoate, reference compound] | 36.1 | about 12% | 6.4 | 20.0 |  |  |  | 12.2 | only a slight effectiveness
